Measurements published in patent US20190231768A1, “P[…] TREATING DRUG INDUCED DYSKINESIAS” (PRILENIA THERAPEUTICS DEVELOPMENT LTD., priority 2017, published 2019).
Where two headings read alike, the source gives them in different places.

Columns and labels:
D2R [1] = conditions: for % D2R occupancy: NHP, based on 11C-raclopride PET
From the text: NHP σ1R occupancy data are extrapolated from in vitro binding investigations with 3H-fluspidine, known and specific σ1R tracer, against human σ1R.

[2] = target: dopamine-2 receptor (D2R) (Homo sapiens, UniProt P14416); conditions: 90 mg
From the text: (§1) The study consisted of a screening period of up to 8 weeks prior to first dosing of tracer, including a Ti three-dimensional magnetization-prepared rapid acquisition gradient echo (MPRAGE 3D) magnetic resonance imaging (MRI) scan (visit 1), a study period of up to 4 weeks (including visits 2 and 3), and a follow-up visit (visit 4). […] Each dose cohort comprised up to 4 subjects. Although every subject of each dose cohort was expected to receive the same dose, it was also possible to change the dose level within a cohort due to the adaptive design of the study.

sigma-1 receptor (S1R) = sigma-1 receptor (S1R) (Homo sapiens, UniProt Q99720)
From the text: as §1

[3] = test system: MPTP-lesioned macaques with L-DOPA-induced dyskinesia
Protocol: The study was conducted in two separate experiments. […] Animals: Eight cynomolgus monkeys (Macaca fascicularis, 8-14 years of age, 3.0-4.8 kg, Suzhou Xishan-Zhongke Laboratory Animal Company, PRC) were used in this study. Fresh fruit, primate pellets and water were available ad libitum other than at times of overnight fasting (from 5 pm) prior to days of behavioral assessment. The housing rooms were subject to a 12-hour light-dark cycle (lights on 7 a.m.), 20-25° C. in a room containing only animals of the same sex.
MPTP administration and development of motor complications: Animals received once-daily subcutaneous injection of MPTP (0.2 mg/kg in 0.9% sterile-saline, Sigma-Aldrich, Oakville, ON, Canada) for 8-30 days. A parkinsonian syndrome was then allowed to develop over at least a 90-day period, during which time additional MPTP administrations were given as necessary, until animals reached moderate to marked levels of disability. […] MPTP lesions were allowed to stabilize for a minimum of a further 60-day prior to commencing induction of L-DOPA-induced motor complications. LID, including both choreiform and dystonic dyskinesia, were evoked by chronic L-DOPA treatment (25 mg/kg, Madopar™, Roche, L-DOPA: benserazide, ratio 4:1) for at least 4-months. During this same period animals were acclimatized to the experimental setting, trained to provide blood samples (while restrained in chair) and to receive administration of treatment by oral, intravenous or subcutaneous routes.
The response to this dose of L-DOPA was assessed to ensure stability and reproducibility within each animal on successive L-DOPA administrations.
For both studies, on the day before behavioral observations, food was removed overnight, from 5 p.m. On days of behavioral assessment, treatments were administered to the animals in their home cages. Animals were then transferred to an observation cage for behavioral assessment. […] The effects of treatments on parkinsonian disability, dyskinesia, duration and quality of anti-parkinsonian benefit (on-time) and activity were assessed and analyzed for a period of 6 hours (h).
Assessment of parkinsonian disability, dyskinesia (chorea and dystonia) and activity: Animals were transferred to individual observation cages (1.5×1.0×1.1 m) and their behavior recorded on HD-video. Rating scales for parkinsonism and dyskinesia adapted from their clinical counterparts (UPDRS pt. III and UDysRS respectively) were used to assess recordings via post-hoc analysis by a movement disorders neurologist blinded to treatment. […] Dyskinesia, representative of the maximum of either chorea or dystonia was scored as 0—absent, 1—mild, 2—moderate, 3—marked or 4—severe. Parkinsonian disability and dyskinesia were assessed for 5-min every 10-min, the score given being most representative of each 5-min observation period. Scores were summed for each hour for time-course analyses and across the entire observation period (0-6 h).
The duration of anti-parkinsonian action, on-time, was defined as the number of minutes for which the bradykinesia score was zero. In addition, the duration of on-time associated with dyskinesia of varying severity was calculated as follows. On-time with disabling dyskinesia, ‘bad’-on-time was calculated the number of minutes for which the bradykinesia score was zero while the dyskinesia score was greater than 2. Meanwhile, on-time without disabling dyskinesia, ‘good’-on-time represents the number of minutes for which the bradykinesia score is zero while the dyskinesia score is 2 or less.
Statistical analyses: Data derived from assessment of duration and quality of on-time were plotted as mean±s.e.m. […] Data for measures of parkinsonian disability and dyskinesia were graphed, where appropriate, as median scores alone (time course) or box and whisker plots (cumulated totals). Time course data for parkinsonian disability and dyskinesia were first ranked within each animal across all treatments using Excel's RANKAVG function. […]

D2R [4] = target: D2R (Homo sapiens, UniProt P14416); conditions: human 67.5 mg bid; based on human PET data and PK profile
[5] = test system: human subject afflicted with a DIMD; conditions: 45, 90, 135 or 180 mg/day oral, add-on
σ1R = σ1R (Rattus norvegicus, UniProt Q9R0C9); conditions: 3 mg/kg PO; cited from earlier work
[6] = study 2, 30 mg/kg, cumulated 0-2 h

Sequence of sigma-1 receptor (S1R) (Q99720 whole entry): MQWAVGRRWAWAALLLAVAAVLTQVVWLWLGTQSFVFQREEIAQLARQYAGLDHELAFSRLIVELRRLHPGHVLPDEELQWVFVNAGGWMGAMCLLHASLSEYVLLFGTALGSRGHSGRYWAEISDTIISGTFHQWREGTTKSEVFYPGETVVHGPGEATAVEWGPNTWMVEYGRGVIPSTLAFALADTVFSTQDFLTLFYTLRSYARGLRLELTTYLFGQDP
Sequence of D2R (Homo sapiens, UniProt P14416) (P14416 whole entry): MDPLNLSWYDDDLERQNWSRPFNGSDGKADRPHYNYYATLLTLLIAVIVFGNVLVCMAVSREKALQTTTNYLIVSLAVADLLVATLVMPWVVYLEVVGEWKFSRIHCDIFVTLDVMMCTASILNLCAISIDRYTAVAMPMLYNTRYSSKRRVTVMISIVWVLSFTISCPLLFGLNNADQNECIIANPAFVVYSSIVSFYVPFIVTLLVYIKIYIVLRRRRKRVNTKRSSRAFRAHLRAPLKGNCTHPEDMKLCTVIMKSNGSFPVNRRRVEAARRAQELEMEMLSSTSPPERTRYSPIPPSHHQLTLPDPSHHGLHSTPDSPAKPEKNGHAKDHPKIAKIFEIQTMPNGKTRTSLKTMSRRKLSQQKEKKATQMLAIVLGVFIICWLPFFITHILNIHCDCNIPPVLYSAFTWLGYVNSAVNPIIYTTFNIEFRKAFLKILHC
Sequence of dopamine-2 receptor (D2R) (P14416 whole entry): as above
Sequence of σ1R (Q9R0C9 whole entry): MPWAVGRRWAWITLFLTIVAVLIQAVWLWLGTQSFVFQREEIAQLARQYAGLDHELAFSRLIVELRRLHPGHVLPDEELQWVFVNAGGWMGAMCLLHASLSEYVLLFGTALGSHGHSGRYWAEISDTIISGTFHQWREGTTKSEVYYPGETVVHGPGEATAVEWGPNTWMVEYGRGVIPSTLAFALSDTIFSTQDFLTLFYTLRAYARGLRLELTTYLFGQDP

CCCN1CCC(c2cccc(S(C)(=O)=O)c2)CC1 [pridopidine, 4-(3-(methylsulfonyl)phenyl)-1-propylpiperidine]
% D2R occupancy (D2R [1]; 7 mg/kg PO): <15% | % D2R occupancy (D2R [1]; 15 mg/kg PO): 15% | % D2R occupancy (D2R [1]; 20 mg/kg PO): 25% | % D2R occupancy (D2R [1]; 30 mg/kg PO): 40% | occupancy of low affinity dopamine receptors (expected) (D2R [1]; high, effective dose (30 mg/kg, or 20 mg/kg in study 1)): about 40% | occupancy of low affinity dopamine receptors (expected) (D2R [1]; low, ineffective doses (7 and 15 mg/kg (study 1), 20 mg/kg in study 2)): about 10% | D2R-occupancy (D2R [1]; macaques, effective doses (20 to 30 mg/kg)): 25-40% | D2R blockage [2]: 3% | difference in drug-induced S1R occupancy between HV and HD patients (sigma-1 receptor (S1R); 90 mg): no differences | S1R occupancy (sigma-1 receptor (S1R); healthy volunteers, single oral dose 45 mg, 2 h after dosing): ~100% | S1R occupancy (sigma-1 receptor (S1R); healthy volunteers, single oral dose 90 mg, 2 h after dosing): ~100% | S1R occupancy (sigma-1 receptor (S1R); single oral dose 1 mg): approximately 40% | Dyskinesia (time course), significance cf. LDh-vehicle ([3]; 20 mg/kg + LDh, hr 1): * (*/**/*** represents P < 0.05, P < 0.01 or P < 0.001 cf. vehicle-treatment) | L-DOPA induced Dystonia (time course), significance cf. LDh-vehicle ([3]; 20 mg/kg + LDh, hr 1): * (*/**/*** represents P < 0.05, P < 0.01 or P < 0.001 cf. vehicle-treatment) | Dyskinesia (time course), significance cf. LDh-vehicle ([3]; 30 mg/kg + LDh, hr 1): ** (*/**/*** represents P < 0.05, P < 0.01 or P < 0.001 cf. vehicle-treatment) | L-DOPA induced Dystonia (time course), significance cf. LDh-vehicle ([3]; 30 mg/kg + LDh, hr 1): ** (*/**/*** represents P < 0.05, P < 0.01 or P < 0.001 cf. vehicle-treatment) | Dyskinesia (time course), significance cf. LDh-vehicle ([3]; 30 mg/kg + LDh, hr 2): *** (*/**/*** represents P < 0.05, P < 0.01 or P < 0.001 cf. vehicle-treatment) | L-DOPA induced Dystonia (time course), significance cf. LDh-vehicle ([3]; 30 mg/kg + LDh, hr 2): *** (*/**/*** represents P < 0.05, P < 0.01 or P < 0.001 cf. vehicle-treatment) | L-DOPA induced Dystonia (time course), significance cf. LDh-vehicle ([3]; 30 mg/kg + LDh, hr 3): * (*/**/*** represents P < 0.05, P < 0.01 or P < 0.001 cf. vehicle-treatment) | LID ([3]; MPTP-lesioned NHPs, high-dose): significant and meaningful decrease | LID ([3]; PD NHP model, low doses): ineffective | total duration of on-time or extent of anti-parkinsonian benefit of L-DOPA ([3]; study 1): absence of any change | anti-parkinsonian benefit afforded by L-DOPA ([3]; study 1, 7 mg/kg, first two hours of observation): modest decrease | total duration of on-time ([3]; study 2, 0-6 h): no change | median level of dyskinesia ([3]; study 2, 20 mg/kg, first hour): between moderate and marked | median level of dystonia ([3]; study 2, 20 mg/kg, first hour): between moderate and marked | 'bad' quality on-time ([3]; study 2, 30 mg/kg): 66 min | decrease in 'bad' quality on-time compared to vehicle ([3]; study 2, 30 mg/kg): 60% | median level of dyskinesia [3, 6]: below mild (non-disabling) | median level of dystonia [3, 6]: below mild (non-disabling) | reduction of median levels of dyskinesia compared to LDh-vehicle [3, 6]: 71% | reduction of median levels of dystonia compared to LDh-vehicle [3, 6]: 72% | median level of dyskinesia ([3]; study 2, 30 mg/kg, first and second hours): mild to moderate | median level of dystonia ([3]; study 2, 30 mg/kg, first to third hours): mild to moderate | proportion of on-time of 'good' quality cf. LDh-vehicle ([3]; study 2, any dose): no difference | occupancy of the dopamine receptors (DARs) (estimated) (D2R [4]): minimal occupancy | symptoms of DIMD [5]: effective (provides at least an additive effect or more than an additive effect) | % σ1R occupancy (σ1R): 60%
